Source: patent publication US7575882B2, “Compositions and methods for identifying modulators of TRPV2” (Janssen Pharmaceutica N. V., priority 2005, dated 2009)
Read-outs that look alike come from different tables or passages of the source.

Legend:
rat TRPV2 = target: T1, rat TRPV2 (Rattus norvegicus, UniProt Q9WUD2, A713V/L151P/T158I); assay: FLIPR calcium mobilization assay in rat TRPV2-expressing HEK293 cells; format: cell-based
T1 construct: A cDNA fragment encoding the full-length rat TRPV2 was subcloned into pCI-neo; expressed in transfected cells
T1 sequence (Q9WUD2 1-761 L151P/T158I/A713V): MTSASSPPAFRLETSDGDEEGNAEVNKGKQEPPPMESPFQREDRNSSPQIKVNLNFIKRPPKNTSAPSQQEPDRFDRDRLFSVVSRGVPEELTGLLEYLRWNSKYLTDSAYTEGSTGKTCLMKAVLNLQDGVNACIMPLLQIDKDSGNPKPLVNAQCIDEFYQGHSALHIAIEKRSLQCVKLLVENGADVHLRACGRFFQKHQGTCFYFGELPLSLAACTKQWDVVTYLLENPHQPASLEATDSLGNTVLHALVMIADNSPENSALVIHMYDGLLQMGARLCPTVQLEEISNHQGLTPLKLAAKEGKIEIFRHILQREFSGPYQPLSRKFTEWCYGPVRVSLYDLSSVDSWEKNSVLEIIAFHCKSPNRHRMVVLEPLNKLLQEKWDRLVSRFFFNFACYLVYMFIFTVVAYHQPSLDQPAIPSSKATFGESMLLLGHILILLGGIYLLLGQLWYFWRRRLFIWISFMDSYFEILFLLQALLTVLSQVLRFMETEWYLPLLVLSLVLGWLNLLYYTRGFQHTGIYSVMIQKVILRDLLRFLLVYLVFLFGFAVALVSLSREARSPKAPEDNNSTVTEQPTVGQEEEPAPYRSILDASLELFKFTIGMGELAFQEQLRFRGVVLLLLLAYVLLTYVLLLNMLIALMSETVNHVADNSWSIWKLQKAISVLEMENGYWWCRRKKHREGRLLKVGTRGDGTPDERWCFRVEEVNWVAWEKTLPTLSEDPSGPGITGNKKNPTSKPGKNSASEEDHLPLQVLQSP
Protocol: A cDNA fragment encoding the full-length rat TRPV2 was subcloned into pCI-neo (Promega, Madison, Wis.) mammalian expression vector. The expression construct was then transfected into HEK293 cells with FuGene6 transfection reagent (Roche, Indianapolis, Ind.) according to the vendor's protocol. Stable cell lines were selected by growth in the presence of 400 μg/ml G418. Single G418 resistant clones were isolated and purified.
The rat TRPV2-expressing HEK293 cells were seeded in a 384-well plate at a concentration of 5×10^3 cells/well and incubated overnight at 37° C. The following day, the cells were loaded with buffer and calcium dye 3 (Molecular Devices, Sunnyvale, Calif.) in a final volume of 50 μl and incubated for 30 minutes at 37° C./5% CO2 followed by 30 additional minutes at room temperature. The fluorescence intensity was measured by a fluorescent plate reader (FLIPR) before, during and after the addition of test compounds.
All data was normalized to that observed for 100 μM Δ^9-THC.

human TRPV1 = target: T2, human TRPV1 (Homo sapiens, UniProt Q8NER1); assay: FLIPR assay in HEK293 cells expressing human TRPV1; format: cell-based; conditions: Δ^9-THC 240 μM, cannabinol 600 μM, others 120 μM
T2 construct: expressed in transfected cells; host or cells: HEK293
Protocol: A selected number of cannabinoids were also tested against HEK293 cells expressing human TRPV1 and canine TRPM8 in the FLIRP assay.

CB2 receptor = conditions: cited from earlier work
[1] = tested on: deletion mutants of rat TRPV2; assay: Calcium mobilization in HEK293 cells expressing rat TRPV2 deletion mutants; format: cell-based; conditions: mutants lacking N-terminal 20, 32/33, 65/66 or C-terminal 11, 23, 32 residues
Excerpt: DNA molecules encoding the deletion mutants were amplified by PCR using the rat TRPV2 cDNA as the template. For amino-terminal deletions, a series N-terminal forward primers encoding an initiating methionine in frame with sequences matching adjacent regions of the desired start at residues G21 (mutant N20, SEQ ID NO:11), P33 (N32, SEQ ID NO:12), A66 (N65, SEQ ID NO:13) and V84 (N83, SEQ ID NO:14) paired with a C-terminal reverse primer were used for PCR amplification. While for carboxyl-terminal deletions, a forward N-terminal primer paired with a series C-terminal reverse primers ending at residues R706 (C51, SEQ ID NO:7), P729 (C32, SEQ ID NO:8), P738 (C23, SEQ ID NO:9) and E750 (C11, SEQ ID NO:10) with an in-frame stop codon at the terminal end of the open reading frame were used for amplification. After PCR amplification and purification, the DNA molecules encoding the deletion mutants were subcloned into the pCI-neo mammalian expression vector and the constructs were confirmed by DNA sequencing. […]
The deletion mutant constructs were then transfected into HEK293 cells using Fugene 6 reagent (Roche) as per the manufacturer's instructions. […] Calcium mobilization was triggered using Δ^9-THC or 2-APB or elevated temperature buffer and measured using either FLIPR or FLEX STATION instruments.

[2] = target: T3, rat and human TRPV2 chimera RHR (Rattus norvegicus, UniProt Q9WUD2, A398L/D418K/D570G/D595E/E431N/E493A/E569T/E577V/E585D/F395L/F429V/I422A/INS586GN/K566E/L151P/L436T/L450V/L461V/L478F/L485V/L503S/M468I/M492L/N571P/P420Q/P587G/P589Q/Q419K/R460H/R490C/R560Q/R563W/R617H/S416T/S424H/S425L/S504A/S564R/S573A/S592G/T428E/T494I/T576S/T580M/V402I/V409A/V543I/V575E/V581E/V621M/V635I/Y400N); assay: Calcium mobilization in HEK293 cells expressing TRPV2 chimera RHR; format: cell-based; conditions: transient expression in HEK293
T3 construct: expressed in transfected cells; host or cells: HEK293, transient, pCI-neo
Protocol: The deletion mutant constructs were then transfected into HEK293 cells using Fugene 6 reagent (Roche) as per the manufacturer's instructions. At 24 hours post-transfection, the cells were harvested and replated in fresh DMEM medium supplemented with 10% fetal bovine serum, 100 units/ml penicillin, and 100 μg/ml streptomycin. The cells were distributed onto poly-D-Lysine coated 96-or 384-well plates at a density of approximately 40,000 and 10,000 cells per well, respectively. At approximately 48 hours post-transfection, the medium was removed from the assay plate and replaced with Calcium 3 Dye Buffer (Molecular Devices) using the protocol available from the manufacturer. Calcium mobilization was triggered using Δ^9-THC or 2-APB or elevated temperature buffer and measured using either FLIPR or FLEX STATION instruments.
Based on the predicted topology and primary sequence features of TRPV2, TRPV2 are divided into 3 major domains: 1) the amino-terminal intracellular domain; 2) the transmembrane domain; and 3) the carboxyl-terminal intracellular domain. For a chimera, each domain can be of rat (R) or human (H) origin. Three rat and human TRPV2 chimera were constructed and tested herein. RRH (SEQ ID NO:15) was a chimera comprising rat 1-392 aa, rat 393-646 aa, and human 647-764 aa. RHR (SEQ ID NO:16) was a chimera comprising rat 1-392, human 391-646, and rat 647-761. HRR (SEQ ID NO:17) was a chimera comprising human 1-390, rat 393-646, and rat 647-761.
DNA molecules encoding the three rat and human TRPV2 chimeras were obtained by fusion PCR. First, DNA molecules encoding the desired TRPV2 domains were amplified by PCR using the rat or human TRPV2 cDNA as the template with synthetic primer DNA containing in-frame sequence that overlapped with the other species domain to be linked. After PCR amplification and purification, DNA molecules encoding the desired TRPV2 domains from human and rat were combined and used as templates for fusion PCR with primer DNA matching the 5′ and 3′ end sequences of the coding sequence for the full length TRPV2 chimera. […]

[3] = FLIPR, rat TRPV2-expressing HEK293 cells; read-out: EC50 (activation of rat TRPV2)
[4] = HEK293; read-out: % Response (activation of rat TRPV2)
[5] = 100 μM compound (anandamide 120 μM); normalized to 100 μM Δ^9-THC

In the case of `CCCCCc1cc(O)c2c(c1)OC(C)(C)c1ccc(C)cc1-2` [Cannabinol], the EC50 (rat TRPV2; [3]) is reported as 77.7 µM, the Emax at 100 µM (rat TRPV2; [4]) is reported as 68% and the “activation of TRPV1” value (human TRPV1) is reported as “no significant activation”.

For `CCCCC/C=C\C/C=C\C/C=C\C/C=C\CCCC(=O)OC(CO)CO` [2-AG, 2-arachidonylglycerol], the Ki (CB2 receptor) is given as 1.4 µM, the Emax at 100 µM (rat TRPV2; [4]) is given as 30% and the “activation of TRPV1” value (human TRPV1) is given as “activated”.

Work on `C=C(C)[C@@H]1CCC(C)=C[C@H]1c1c(O)cc(O)cc1CCCCC` [CAY10429] yielded an Emax at 100 µM (rat TRPV2; [4]) of 0%.

`C=C(C)[C@@H]1CCC(C)=C[C@H]1C1=C(O)C(=O)C(CCCCC)=CC1=O` [HU-331] gave an EC50 (rat TRPV2; [3]) of about 14 µM and an Emax at 100 µM (rat TRPV2; [4]) of 47%.

Molecule `Cc1c(C(=O)c2cccc3ccccc23)c2cccc3c2n1C(CN1CCOCC1)CO3` (stereo not drawn) [WIN 55,212-3] has an Emax at 100 µM (rat TRPV2; [4]) of 7%.

`CCCCCCCCCCCCCCCC(=O)NCCO` [PEA, palmitoylethanolamide] showed an Emax at 100 µM (rat TRPV2; [4]) of 5%.

With `CCCCCCC(C)(C)c1ccc(C2CC(O)CCC2CCCO)c(O)c1` (stereo not drawn) [CP55,940] the Emax at 100 µM (rat TRPV2; [4]) was 43%.

For `CCCCC/C=C\C/C=C\C/C=C\C/C=C\CCCC(=O)NCCO` [Anandamide, N-arachidonoylethanolamine], the Ki (CB2 receptor) is listed as 1.93 µM, the “activation effect on TRPV2” value (rat TRPV2) is listed as “no or minimal activation effect” and the Emax at 100 µM (rat TRPV2; [4]) is listed as 0%. For the same molecule, the “activation of TRPV1” value (human TRPV1) was “activated”.

Work on `Cc1cc2cccc3c2n1C(CN1CCOCC1)[C@H](C(=O)c1cccc2ccccc12)O3` (stereo partly drawn) [WIN-55,212-2] yielded an Emax at 100 µM (rat TRPV2; [4]) of -2%.

In the case of Cannabidiol, the “% Response (activation of rat TRPV2)” value (rat TRPV2; [5]) is reported as 163% and the EC50 (rat TRPV2; [3]) is reported as 3.7 µM.

For 2-aminoethoxydiphenyl borate [2-APB], the “response of rat TRPV2 deletion mutants to the compound” value [1] was “still active”, the “response of chimera RHR to the compound” value [2] was “active” and the “% Response (activation of rat TRPV2)” value (rat TRPV2; [5]) was 102%. For the same molecule, the EC50 (rat TRPV2; [3]) was 8 µM.

With Nabilone the “% Response (activation of rat TRPV2)” value (rat TRPV2; [5]) was 59%.

In the case of `CCCCC/C=C\C/C=C\C/C=C\C/C=C\CCCC(=O)Nc1ccc(O)cc1` [AM404], the Emax at 100 µM (rat TRPV2; [4]) is reported as 6% and the “activation of TRPV1” value (human TRPV1) is reported as “activated”.

With `CCCCCCC(C)(C)c1cc(O)c2c(c1)OC(C)(C)[C@H]1CC=C(CO)C[C@H]21` [HU-211] the Emax at 100 µM (rat TRPV2; [4]) was 31%.

With `C=C(C)[C@@H]1CCC(C)=C[C@H]1c1c(O)cc(C)cc1O` [O-1821] the EC50 (rat TRPV2; [3]) was about 20 µM and the Emax at 100 µM (rat TRPV2; [4]) was 95%.

Work on `CCCn1c(C)c(C(=O)c2cccc3ccccc23)c2ccccc21` [JWH015] yielded an Emax at 100 µM (rat TRPV2; [4]) of 14%.

In the case of `CCCCCCC(C)(C)c1cc(OC)c(C2C=C(CO)[C@H]3CC2C3(C)C)c(OC)c1` (stereo partly drawn) [HU-308], the Emax at 100 µM (rat TRPV2; HEK293, read-out: % Response (activation of rat TRPV2)) is reported as 10%.

Work on `C=C(C)[C@@H]1CCC(C)=CC1c1c(OC)cc(C)cc1OC` (stereo partly drawn) [O-1918] yielded an Emax at 100 µM (rat TRPV2; [4]) of 6%.

For `CCCC(C)(C)c1ccc2c(c1)OC(C)(C)[C@@H]1CC=C(C)C[C@@H]21` [JWH-133], the Emax at 100 µM (rat TRPV2; [4]) was 5%.
